# Values of other authors, collected in US20070197640A1, “Certain chemical entities, compositions, and methods” (Cytokinetics, Inc., priority 2005, published 2007).
# System: A549 cells
# Settings: data provided by National Cancer Institute, Developmental Therapeutic Program
row,SMILES,GI50
1,O=c1[nH]cc(F)c(=O)[nH]1 [5-fluorouracil],1000 nM
2,COc1cccc2c1C(=O)c1c(O)c3c(c(O)c1C2=O)C[C@@](O)(C(=O)CO)C[C@@H]3O[C@H]1C[C@H](N)[C@H](O)[C@H](C)O1 [doxorubicin],63 nM
3,NC(=O)NO [hydroxyurea],500000 nM
4,CC(=O)O[C@H]1C(=O)[C@@]2(C)[C@H]([C@H](OC(=O)c3ccccc3)[C@]3(O)C[C@H](OC(=O)[C@H](O)[C@@H](NC(=O)c4ccccc4)c4ccccc4)C(C)=C1C3(C)C)[C@]1(OC(C)=O)CO[C@@H]1C[C@@H]2O [paclitaxel],4 nM
